From patent publication US20070010466A1 (priority 2005, published 2007)
Entries after “also recorded” stand apart in the source; their conditions may differ.

Key:
[1] = preclinical models, several oncolytics; cited from earlier work
[2] = target: T1, P-gp function on circulating natural killer (NK) cells and leukemic blasts (Homo sapiens, UniProt P08183); assay: cellular P-gp function, DiOC2 accumulation assay with flow cytometry, in AML patients; assay type: in vivo
T1 construct: Pharmacodynamic assessments of cellular P-gp function were conducted using an accumulation assay with DiOC2 and flow cytometry; endogenous in cells; host or cells: circulating NK cells and leukemic blasts from AML patients
Description: Cytarabine was also administered (100 mg/m^2/day) starting after the first dose of daunorubicin as a continuous intravenous infusion on days 1-7. Blood samples were taken at intervals for pharmacokinetic and pharmacodynamic studies. Pharmacokinetic drug determinations were conducted by HPLC. Pharmacodynamic assessments of cellular P-gp function were conducted using an accumulation assay with DiOC2 and flow cytometry. P-gp function was assessed on circulating natural killer (NK) cells and leukemic blasts. […] Means of 3 patients for each time point are shown.

[3] = clinical trials; cited from earlier work

T1 sequence (P08183 whole entry): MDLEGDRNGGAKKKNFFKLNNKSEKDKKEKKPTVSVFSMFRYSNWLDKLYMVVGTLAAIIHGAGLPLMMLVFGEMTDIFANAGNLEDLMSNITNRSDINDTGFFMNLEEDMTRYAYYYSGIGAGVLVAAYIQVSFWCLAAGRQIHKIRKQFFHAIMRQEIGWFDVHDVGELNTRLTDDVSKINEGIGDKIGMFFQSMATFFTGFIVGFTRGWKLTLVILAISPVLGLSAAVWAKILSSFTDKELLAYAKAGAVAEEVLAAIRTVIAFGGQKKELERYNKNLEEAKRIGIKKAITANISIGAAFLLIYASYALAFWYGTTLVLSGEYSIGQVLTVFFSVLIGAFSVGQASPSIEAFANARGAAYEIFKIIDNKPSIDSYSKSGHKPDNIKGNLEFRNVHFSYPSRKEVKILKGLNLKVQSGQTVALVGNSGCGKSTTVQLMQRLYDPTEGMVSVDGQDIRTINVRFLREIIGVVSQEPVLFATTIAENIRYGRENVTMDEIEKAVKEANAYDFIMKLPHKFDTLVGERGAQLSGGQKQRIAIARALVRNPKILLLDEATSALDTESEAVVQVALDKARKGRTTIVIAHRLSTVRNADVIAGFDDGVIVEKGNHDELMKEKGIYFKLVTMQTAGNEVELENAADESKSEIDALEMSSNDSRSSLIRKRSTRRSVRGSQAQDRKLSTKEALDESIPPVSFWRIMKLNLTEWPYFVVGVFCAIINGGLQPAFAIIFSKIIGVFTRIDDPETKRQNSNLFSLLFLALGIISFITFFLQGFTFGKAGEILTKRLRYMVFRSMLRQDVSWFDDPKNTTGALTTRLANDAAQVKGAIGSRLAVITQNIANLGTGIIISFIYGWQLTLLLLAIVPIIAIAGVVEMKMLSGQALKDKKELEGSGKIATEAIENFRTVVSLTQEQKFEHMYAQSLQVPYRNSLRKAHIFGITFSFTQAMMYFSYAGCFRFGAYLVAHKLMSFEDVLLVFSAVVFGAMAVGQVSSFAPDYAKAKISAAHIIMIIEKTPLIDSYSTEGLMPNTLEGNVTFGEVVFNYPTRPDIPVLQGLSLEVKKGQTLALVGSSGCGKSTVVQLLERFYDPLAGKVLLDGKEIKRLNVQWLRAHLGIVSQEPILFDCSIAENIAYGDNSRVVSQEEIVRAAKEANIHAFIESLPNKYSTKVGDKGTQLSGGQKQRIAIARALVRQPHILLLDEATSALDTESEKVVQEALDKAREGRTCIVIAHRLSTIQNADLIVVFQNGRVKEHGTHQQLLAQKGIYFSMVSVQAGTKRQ

Structure (SMILES) | pharmacokinetic interaction with co-administered chemotherapy [1] | continued inhibition of P-gp functional activity after infusion was halted ([2]; after 72 hour infusion) | time to potent inhibition of P-gp function after start of infusion ([2]; both NK cells and leukemic blasts, 700 mg/day continuous iv infusion) [h] | pharmacokinetic interaction with coadministered cytotoxic agents [3]
O[C@@H](COc1cccc2ncccc12)CN1CCN([C@@H]2c3ccccc3[C@@H]3[C@H](c4ccccc42)C3(F)F)CC1 [zosuquidar] | no pharmacokinetic interaction; also recorded: minimal pharmacokinetic (PK) interactions | at least 12 hours | ≤ 2 | –
C/C=C/C[C@@H](C)C(=O)[C@H]1C(=O)N[C@@H](C(C)C)C(=O)N(C)CC(=O)N(C)[C@@H](CC(C)C)C(=O)N[C@@H](C(C)C)C(=O)N(C)[C@@H](CC(C)C)C(=O)N[C@@H](C)C(=O)N[C@H](C)C(=O)N(C)[C@@H](CC(C)C)C(=O)N(C)[C@@H](CC(C)C)C(=O)N(C)[C@@H](C(C)C)C(=O)N1C [valspodar] | – | – | – | significant pharmacokinetic interactions
